Results on 1 molecule are retold here after US8647657B2, “Polymeric devices for controlled release of active agents” (Durect Corporation, priority 2003, dated 2014).

One assay relates to FSH. Kind of assay: Blood level of FSH after time-released leuprolide acetate device. It is filed as in vivo, human. On the procedure: (§1) For example, a 30 mg time-released dose of leuprolide acetate can be administered to an adult subject. The leuprolide acetate active agent is provided in a biodegradable polymer system to supply a polymeric device for controlled release of the active agent. […] The leuprolide acetate active agent is incorporated within the polymer system such that the polymer system provides for controlled release of the agent from the device. When the device is administered to the subject, for example, when it is implanted, the device releases the active agent in a controlled fashion without a lag period, or with a minimal lag period. In this manner, the leuprolide can be gradually released over a period of several months. After a period of two weeks, the subject's blood level of LH may be undetectable and the subject's blood level of FSH may be approximately 5 mIU/mL.
(§2) In another example, a dose of 1.88 mg time-released dose of leuprolide acetate can be administered to a subject. The leuprolide acetate active agent is provided in a biodegradable polymer system to supply a polymeric device for controlled release of the active agent. […] The leuprolide acetate active agent is incorporated within the polymer system such that the polymer system provides for controlled release of the agent from the device. […]

Another assay relates to LH. Put plainly: Blood level of LH after time-released leuprolide acetate device. It is filed as in vivo, human. On the procedure:
as §1, §2

[1] abbreviates: 1.88 mg time-released dose in polymeric device, released over approximately one month.
The mark [2] stands for this setting: 30 mg time-released dose in polymeric device, adult subject, after two weeks.

Consider `CCNC(=O)[C@@H]1CCCN1C(=O)[C@H](CCCNC(=N)N)NC(=O)[C@H](CC(C)C)NC(=O)[C@@H](CC(C)C)NC(=O)[C@H](Cc1ccc(O)cc1)NC(=O)[C@H](CO)NC(=O)[C@H](Cc1c[nH]c2ccccc12)NC(=O)[C@H](Cc1c[nH]cn1)NC(=O)[C@@H]1CCC(=O)N1` [leuprolide acetate], for which, in the assay on FSH (setting [1]), the FSH blood levels result is on record as “undetectable levels”. The “blood level of FSH” value with FSH (setting [2]) is listed as “approximately 5 mIU/mL”. The LH blood levels result with LH (setting [1]) is “undetectable levels”. Besides, the “blood level of LH” value in the assay on LH (setting [2]) is given as “undetectable”.
